Tests used:
[1] = system: Schoenoplectiella juncoides; assay: Herbicidal activity against Schoenoplectiella juncoides assessed as dose required to cause sufficient herbicidal activity after 5 to 7 days; assay type: functional
Sagittaria pygmaea = assay: Herbicidal activity against Sagittaria pygmaea assessed as dose required to cause sufficient herbicidal activity after 5 to 7 days; assay type: functional
Oryza sativa = assay: Toxicity in two leaf stage of Oryza sativa var. Nihonbare (rice) assessed as dose required to selectivity to Oryza sativa; assay type: organism-based; details: in vivo
Echinochloa oryzicola = assay: Herbicidal activity against Echinochloa oryzicola assessed as dose required to cause sufficient herbicidal activity; assay type: functional

SMILES	MED [1] [g/acre]	MED (Sagittaria pygmaea) [g/acre]	MED (Oryza sativa) [g/acre]	MED (Echinochloa oryzicola) [g/acre]
COc1nc(NC(=O)NS(=O)(=O)c2csnc2COCCF)nc(OC)n1	1.25	0.313	> 0.313	5
COc1cc(OC)nc(NC(=O)NS(=O)(=O)c2sccc2C[N+](=O)[O-])n1			0.625	
COc1nc(NC(=O)NS(=O)(=O)c2ccoc2COCCF)nc(OC)n1	0.625	0.156	0.313	1.25
COc1nc(NC(=O)NS(=O)(=O)c2c(COCCF)cnn2C)nc(OC)n1	0.313		1.25	0.625
COc1nc(NC(=O)NS(=O)(=O)c2scnc2COCCF)nc(OC)n1	2.5	2.5	2.5	2.5
COc1nc(NC(=O)NS(=O)(=O)c2snc(C)c2COCCF)nc(OC)n1	1.25	1.25	2.5	1.25
COc1nc(NC(=O)NS(=O)(=O)c2ccccc2COCCF)nc(OC)n1	40	10	2.5	40
COc1nc(NC(=O)NS(=O)(=O)c2ccc3ccccc3c2COCCF)nc(OC)n1	<2.5	<2.5	< 2.5	<2.5
COc1nc(NC(=O)NS(=O)(=O)c2sc3ccccc3c2COCCF)nc(OC)n1	<2.5	<2.5	< 2.5	<2.5
COc1nc(NC(=O)NS(=O)(=O)Cc2sccc2COCCF)nc(OC)n1	20	20	< 2.5	80
COc1cc(OC)nc(NC(=O)NS(=O)(=O)c2sccc2COCC(F)F)n1	0.0781	0.0391	0.312	1.25
COc1cc(OC)nc(NC(=O)NS(=O)(=O)c2sccc2COCCF)n1	0.0391	0.0391	0.0781	0.313
COc1cc(OC)nc(NC(=O)NS(=O)(=O)c2sccc2COCC(F)(F)Cl)n1	2.5		1.25	5
COc1cc(OC)nc(NC(=O)NS(=O)(=O)c2ccsc2COCCF)n1	0.0781		0.313	
COc1cc(OC)nc(NC(=O)NS(=O)(=O)c2cscc2COCCF)n1	0.156	0.0781	0.625	
COc1cc(C)nc(NC(=O)NS(=O)(=O)c2sccc2COCCF)n1	0.0391	0.0391	0.156	0.0195
Cc1cc(C)nc(NC(=O)NS(=O)(=O)c2sccc2COCCF)n1			0.156	
COc1cc(Cl)nc(NC(=O)NS(=O)(=O)c2sccc2COCCF)n1	0.156	0.313	0.625	0.156
COc1cc(OCC(F)(F)F)nc(NC(=O)NS(=O)(=O)c2sccc2COCCF)n1	10	2.5	5	20
O=C(Nc1nc(OC(F)F)cc(OC(F)F)n1)NS(=O)(=O)c1sccc1COCCF	5	5	5	5
COc1nc(NC(=O)NS(=O)(=O)c2sccc2COCCF)nc(OC)n1			0.313	5
COc1nc(C)nc(NC(=O)NS(=O)(=O)c2sccc2COCCF)n1	0.313	0.625	0.0781	0.313
C#CCOCc1ccsc1S(=O)(=O)NC(=O)Nc1nc(OC)cc(OC)n1	0.0781	0.0391	0.156	0.625
COCCOCc1ccsc1S(=O)(=O)NC(=O)Nc1nc(OC)cc(OC)n1	0.313	0.313	0.156	
COc1cc(OC)nc(NC(=O)NS(=O)(=O)c2sccc2COCCCl)n1	0.156	0.156	0.625	
COc1cc(OC)nc(NC(=O)NS(=O)(=O)c2sccc2COCCCCl)n1			0.313	1.25
COc1cc(OC)nc(NC(=O)NS(=O)(=O)c2sccc2COCC(Cl)(Cl)Cl)n1	2.5	2.5	1.25	5

SMILES	MED [1] [g/acre]	MED (Sagittaria pygmaea) [g/acre]	MED (Oryza sativa) [g/acre]	MED (Echinochloa oryzicola) [g/acre]
COc1cc(OC)nc(NC(=O)NS(=O)(=O)c2sccc2COCC(F)(F)F)n1	0.156	0.156	1.25	2.5
COc1cc(OC)nc(NC(=O)NS(=O)(=O)c2sccc2COCC(F)(F)C(F)(F)F)n1	1.25	2.5	0.625	5
COc1cc(OC)nc(NC(=O)NS(=O)(=O)c2sccc2COCC(F)(F)C(F)(F)C(F)(F)F)n1	20	10	0.625	10
COc1cc(OC)nc(NC(=O)NS(=O)(=O)c2sccc2COC(C)C(F)(F)F)n1 (stereo not given)	2.5		1.25	5
COc1cc(OC)nc(NC(=O)NS(=O)(=O)c2sccc2COC(C)(C)C(F)(F)F)n1	1.25	2.5	2.5	20
COc1cc(OC)nc(NC(=O)NS(=O)(=O)c2sccc2COC(CF)CF)n1		0.313	0.625	1.25
COc1cc(OC)nc(NC(=O)NS(=O)(=O)c2sccc2COCCCF)n1	0.313	0.156	0.625	0.313
COc1cc(OC)nc(NC(=O)NS(=O)(=O)c2sccc2COCC2CCCO2)n1 (stereo not given)	5	10	0.625	5
COc1cc(OC)nc(NC(=O)NS(=O)(=O)c2sccc2CN(C)C)n1	10	10		20
CCN(C)Cc1ccsc1S(=O)(=O)NC(=O)Nc1nc(OC)cc(OC)n1	10	5	20	20
CCN(CC)Cc1ccsc1S(=O)(=O)NC(=O)Nc1nc(OC)cc(OC)n1			0.625	5
COC(=O)NCc1ccsc1S(=O)(=O)NC(=O)Nc1nc(OC)cc(OC)n1	1.25	0.313	2.5	20
CNC(=O)NCc1ccsc1S(=O)(=O)NC(=O)Nc1nc(OC)cc(OC)n1	20	10	2.5	10
COc1cc(OC)nc(NC(=O)NS(=O)(=O)c2sccc2CNC(=O)CCl)n1	10	5	5	10
COc1cc(OC)nc(NC(=O)NS(=O)(=O)c2sccc2Cn2cccn2)n1	1.25		0.625	5
COc1cc(OC)nc(NC(=O)NS(=O)(=O)c2sccc2Cn2cc(C(F)(F)F)ccc2=O)n1	40	40	40	40
CCOCc1ccsc1S(=O)(=O)NC(=O)Nc1nc(OC)cc(OC)n1	0.0391	0.0391	0.156	0.313
C=CCOCc1ccsc1S(=O)(=O)NC(=O)Nc1nc(OC)cc(OC)n1	0.156	0.156	0.313	0.625
COCc1ccsc1S(=O)(=O)NC(=O)Nc1nc(OC)cc(OC)n1	0.0391	0.0195	0.0781	
COc1cc(OC)nc(NC(=O)NS(=O)(=O)c2sccc2CC#N)n1	0.156		0.0391	0.625
COc1cc(OC)nc(NC(=O)NS(=O)(=O)c2sccc2CSC)n1		0.0195	0.156	0.313
COC(=O)Cc1ccsc1S(=O)(=O)NC(=O)Nc1nc(OC)cc(OC)n1	1.25	0.313	0.156	1.25
CNC(=O)Cc1ccsc1S(=O)(=O)NC(=O)Nc1nc(OC)cc(OC)n1	0.625	0.313	1.25	
COc1cc(OC)nc(NC(=O)NS(=O)(=O)c2sccc2COCCO)n1	0.625		0.313	0.625
CCOC(=O)COCc1ccsc1S(=O)(=O)NC(=O)Nc1nc(OC)cc(OC)n1			1.25	
COc1cc(OC)nc(NC(=O)NS(=O)(=O)c2sccc2COc2ccccc2)n1	1.25	0.313	0.625	2.5
COc1cc(OC)nc(NC(=O)NS(=O)(=O)c2sccc2COc2cccc(C(F)(F)F)c2)n1	20	20	0.625	5

— ChEMBL document CHEMBL3045621, “Synthesis and Structure-activity Relationships of Herbicidal Thiophene Sulfonylurea Compounds” (J Pestic Sci, 1997)
